Data as given in patent US20220218647A1, “DIETARY BUTYRATE” (SOCIETE DES PRODUITS NESTLE S.A., priority 2019, published 2022).

How the values were obtained:
[1] = tested on: rabbit gastric lipase (RGL) followed by porcine pancreatic lipase (PPL); assay: Sequential in vitro digestion in simulated gastric fluid (SGF) followed by SIF, pH-stat; assay type: in vitro ADME
Description: (§1) An emulsion was then created using an ultrasonic probe homogeniser.

[2] = biological target: T1, porcine pancreatic lipase (PPL) (Sus scrofa, UniProt P00591); settings: pig, 3 h, pH 11.5
T1 sequence (P00591 1-450): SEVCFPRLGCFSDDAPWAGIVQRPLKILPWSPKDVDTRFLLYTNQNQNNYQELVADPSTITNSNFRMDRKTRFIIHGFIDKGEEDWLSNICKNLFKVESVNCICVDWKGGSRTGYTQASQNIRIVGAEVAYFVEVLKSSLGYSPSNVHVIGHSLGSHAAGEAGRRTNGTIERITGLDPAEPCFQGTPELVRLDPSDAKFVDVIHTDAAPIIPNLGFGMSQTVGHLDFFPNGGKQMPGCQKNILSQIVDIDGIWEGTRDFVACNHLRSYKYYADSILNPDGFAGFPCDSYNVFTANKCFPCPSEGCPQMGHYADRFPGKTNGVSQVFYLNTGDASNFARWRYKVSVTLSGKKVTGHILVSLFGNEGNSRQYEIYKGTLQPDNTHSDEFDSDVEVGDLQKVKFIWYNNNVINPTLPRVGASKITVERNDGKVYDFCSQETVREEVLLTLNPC
T1 sequence (P02703 23-112 partner): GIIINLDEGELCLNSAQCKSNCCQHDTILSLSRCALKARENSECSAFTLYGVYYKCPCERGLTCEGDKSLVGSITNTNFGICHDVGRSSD
Description: Because many fatty acids are only partially ionised at pH 6.8, direct titration gives only partial picture of the extent of lipid digestion, instead back titration to pH 11.5 or GC-FAME analysis is required to estimate the full extent of digestion.

[3] = biological target: T1, porcine pancreatic lipase (PPL); assay: In vitro lipid digestion in simulated intestinal fluid (SIF), pH-stat; assay type: in vitro ADME; set-up: by porcine pancreatic lipase (from pancreatin); from tissue; host or cells: pancreatin (pig pancreas extract); settings: SIF alone; emulsion containing 200 mg fat, pH 6.8, 37° C.
Description: as §1

In the case of CCCC(=O)OCC(COC(=O)CCC)OC(=O)CCC [tributyrin], the “initial lipolysis rate in SIF compartment” value ([1]; SGF-SIF sequential digestion, 200 mg fat) is reported as 44.1 ± 8.8 µmol/min, the “hydrolysis in the stomach” value ([1]; gastric compartment of the model) is reported as “extensive hydrolysis” and the “lipolysis by gastric lipase” value ([1]; indicated by decreased total fatty acid release during SIF lipolysis after pre-exposure to RGL in SGF) is reported as roughly 60%. For the same molecule, the extent of digestion [2] was 101.5±0.9% and the “initial rate of lipolysis” value [3] was 223 ± 59 µmol/min.
